Experimental data from BindingDB's records for patent US20260060961 (Jazz Pharmaceuticals Ireland, 2026).

Molecular target: GTPase KRas [G12C] (Homo sapiens, UniProt P01116, G12C)
Test: HTRF Nucleotide Exchange Assay
Experimental: The capacity of compounds to bind KRAS G12C and KRAS wildtype was quantified using a HTRF nucleotide exchange assay. Recombinant human KRAS protein (5 nM; aa1-188 KRAS WT or KRAS containing the G12C amino acid substitution, an N-terminal 6×His-tag and leader sequence), and 2 nM Europium-labeled anti-6×His antibody were mixed in assay buffer (10 mM HEPES pH7.3, 75 mM NaCl, 5 mM MgCl2, 0.05% BSA, 0.0025% NP-40 and 100 mM KF) with various concentrations of compound in a 384-well plate and a volume of 5 μL. After a 180 minute incubation at room temperature, 5 μl of 200 nM EDA-GTP-DY647P1 diluted in assay buffer was added to the plate. Following 30-minute incubation at room temperature, time-resolved fluorescence was measured on a PerkinElmer Envision plate reader. DMSO (0.3%) and unlabeled GDP (1 μM) or equivalent tool compound were used to generate the Max and Min assay signals, respectively. Data was analysed using a four-parameter logistic model to calculate IC50 values, with at least two independent replicates were performed for each compound.

Sequence of GTPase KRas [G12C] (P01116 whole entry G12C): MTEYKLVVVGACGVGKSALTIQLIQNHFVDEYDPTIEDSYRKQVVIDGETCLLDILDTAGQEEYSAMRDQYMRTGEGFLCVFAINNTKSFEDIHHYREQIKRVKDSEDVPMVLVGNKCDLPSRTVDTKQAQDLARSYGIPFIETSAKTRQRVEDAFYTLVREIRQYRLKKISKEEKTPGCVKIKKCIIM

| IC50 [µM] | SMILES |
| --- | --- |
| < 1 | C=CC(=O)N1CC2(CC(c3nc(-c4ccc(OCC(=O)N5CCOCC5)cc4)c(-c4cc(O)cc5ccccc45)n3C)C2)C1 [US20260060961, Example 29] |
| > 10 | C=CC(=O)N1CC2(CC(c3nc(-c4ccc5c(cnn5C)c4)c(-c4cccc5ccccc45)n3C)C2)C1 [US20260060961, Example 34] |
